Measurements published in publication PMC10458824, “Identification of Xanthine Oxidase Inhibitors from Celery Seeds Using Affinity Ultrafiltration–Liquid Chromatography–Mass Spectrometry” (Molecules, 2023).
“And” between values parts separate entries of the source, which are not always exact repeats. Equal values may be shown once.

How the values were obtained:
Xanthine oxidase (XOD) = target: T1, Xanthine oxidase (XOD) (Bos taurus, UniProt P80457); experiment: XOD activity assay (absorbance at 290 nm, xanthine substrate); assay type: biochemical; settings: XOD 0.02 U/mL, xanthine 0.48 mM, 37 °C, OD 290 nm; read-out: IC50 of XOD inhibition
T1 construct: purchased Sigma-Aldrich Co., Ltd. (St. Louis, MO, USA)
Description: The inhibitory effects of compounds were determined in the XOD activity assay according to a previous report with minor modifications. Celery seed extracts or the “hit” compounds from the UF–LC–MS screening assay were dissolved in PBS and prepared for a series of test solutions using 2-fold serial dilutions. Test solutions (50 μL) were mixed with XOD (50 μL at 0.02 U/mL) and incubated at 37 °C for 5 min. This was followed by the addition of XOD substrate xanthine (150 μL at 0.48 mM) and further incubation at 37 °C for 30 min. The optical density (OD) of each tube was then measured at 290 nm. Percent XOD inhibition was calculated using the following formula: %=1−A1−A2/A3−A4×100 where A1 was the absorbance of the production with the sample and XOD, A2 was the absorbance of the production with the sample, A3 was the absorbance of the production with PBS and XOD, and A4 was the absorbance of the production with PBS.

[1] = target: T2, Xanthine oxidase (XOD), febuxostat binding domain (Bos taurus, UniProt P80457); experiment: Affinity ultrafiltration LC-MS (UF-LC-MS) screening, febuxostat-masked vs unmasked XOD; settings: peak area with vs without febuxostat preincubation of XOD; extract 2 mg/mL
T2 construct: purchased Sigma-Aldrich Co., Ltd. (St. Louis, MO, USA)
Description: Based on the variation in the chromatogram with and without febuxostat binding in the XOD, the binding degree was used to evaluate the febuxostat competitive capacity of compounds in celery seeds. The binding degree (BD) was calculated as follows: BD(%)=Af−Ano_f/Af×100%
Af and Ano_f represent the peak area of compounds in the chromatogram with and without preincubation with febuxostat, respectively.
Identification of potential XOD inhibitors from celery seed extract was performed using UF–LC–MS according to a previous study with modification. To prepare the XOD interaction solution, 250 μL of XOD (0.5 U/mL) was incubated with 50 μL of febuxostat (the XOD inhibitor, 500 μg/mL in 10% DMSO-PBS, masked group) to mask the druggable binding domain of XOD or 10% DMSO-PBS (vehicle control, unmasked group) at 37 °C for 45 min. The extract (50 μL at 2 mg/mL in methanol) was then added to the interaction solution for a further 45 min. After incubation, the mixtures were transferred to a 10 kDa molecule weight cut-off ultrafiltration filter and centrifuged at 14,500 rpm for 20 min. The membrane was washed 3 times with 450 μL ddH2O to remove the unbound molecules. […] The elution solution was then ultrafiltered in the new filter units as described above. The final products in the bottom of the filter units were analyzed using a HPLC–MS system.

T1 sequence (P80457 whole entry): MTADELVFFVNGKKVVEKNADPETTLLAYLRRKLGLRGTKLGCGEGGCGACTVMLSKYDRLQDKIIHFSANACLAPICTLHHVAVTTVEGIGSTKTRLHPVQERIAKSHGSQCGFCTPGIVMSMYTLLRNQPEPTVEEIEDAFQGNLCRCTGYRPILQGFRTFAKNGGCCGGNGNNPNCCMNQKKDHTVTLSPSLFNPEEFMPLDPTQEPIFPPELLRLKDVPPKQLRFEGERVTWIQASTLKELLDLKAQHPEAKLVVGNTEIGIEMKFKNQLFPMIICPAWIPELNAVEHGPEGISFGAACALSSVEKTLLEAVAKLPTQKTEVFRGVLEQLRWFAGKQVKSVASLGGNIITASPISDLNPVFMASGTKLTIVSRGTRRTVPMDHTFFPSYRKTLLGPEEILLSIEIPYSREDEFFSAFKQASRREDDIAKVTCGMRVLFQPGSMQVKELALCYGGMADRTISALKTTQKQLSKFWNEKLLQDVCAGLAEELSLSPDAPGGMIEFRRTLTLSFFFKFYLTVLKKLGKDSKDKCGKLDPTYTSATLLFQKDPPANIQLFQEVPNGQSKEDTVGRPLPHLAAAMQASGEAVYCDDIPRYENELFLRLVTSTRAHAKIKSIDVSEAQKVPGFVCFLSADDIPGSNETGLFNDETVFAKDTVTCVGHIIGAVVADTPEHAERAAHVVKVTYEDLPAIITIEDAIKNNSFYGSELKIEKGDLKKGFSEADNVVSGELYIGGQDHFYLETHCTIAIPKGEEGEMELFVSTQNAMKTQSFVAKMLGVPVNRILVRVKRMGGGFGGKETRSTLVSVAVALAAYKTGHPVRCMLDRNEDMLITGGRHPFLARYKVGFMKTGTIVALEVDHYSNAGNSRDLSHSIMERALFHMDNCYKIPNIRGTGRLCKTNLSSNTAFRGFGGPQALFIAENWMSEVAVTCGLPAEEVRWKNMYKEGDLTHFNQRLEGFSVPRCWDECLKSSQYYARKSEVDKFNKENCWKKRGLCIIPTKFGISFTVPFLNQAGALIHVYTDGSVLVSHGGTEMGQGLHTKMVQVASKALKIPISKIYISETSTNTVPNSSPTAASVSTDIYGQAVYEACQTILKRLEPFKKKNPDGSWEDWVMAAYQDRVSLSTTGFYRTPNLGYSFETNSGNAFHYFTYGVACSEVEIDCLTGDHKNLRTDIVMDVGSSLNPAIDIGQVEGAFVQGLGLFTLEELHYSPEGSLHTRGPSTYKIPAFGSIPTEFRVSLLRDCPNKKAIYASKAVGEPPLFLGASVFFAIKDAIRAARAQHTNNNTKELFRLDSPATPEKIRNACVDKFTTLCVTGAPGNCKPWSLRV
T2 sequence (P80457 whole entry, the tested form may be a part): as the sequence (P80457 whole entry) above

Q: With `O=c1cc(-c2ccc(O)c(O)c2)oc2cc(O[C@@H]3O[C@H](CO)[C@@H](O)[C@H](O)[C@H]3O[C@@H]3OC[C@](O)(CO)[C@H]3O)cc(O)c12` [Compound 9, Luteolin 7-O-apiosylglucoside] as the compound, how does the IC50 (Xanthine oxidase (XOD)) read?
A: Its IC50 is 3140 µM.

Q: And the “binding degree (BD)” value [1]?
A: The value was 89.1%.

Q: Which results are given for `O=c1cc(-c2ccc(O)c(O)c2)oc2cc(O[C@@H]3O[C@H](CO)[C@@H](O)[C@H](O)[C@H]3O)cc(O)c12` [Compound 10, Luteolin 7-O-glucoside]?
A: IC50 (Xanthine oxidase (XOD)): 976 µM; binding degree (BD) [1]: 95.9%

Q: With `CCCC[C@H]1OC(=O)C2=C1CC[C@H](O)[C@H]2O` [Compound 11, Senkyunolide J] as the compound, how does the “binding degree (BD)” value [1] read?
A: The value was 50.5%.

Q: For `C[C@@]1(O)CO[C@@H](O[C@H]2[C@H](Oc3cc(O)c4c(=O)cc(-c5ccc(O)c(O)c5)oc4c3)O[C@H](COC(=O)CC(=O)O)[C@@H](O)[C@@H]2O)[C@@H]1O` [Compound 14, Luteolin 7-O-malonyl-apiosylglucoside], which “binding degree (BD)” value [1] is on record?
A: The value was 93.6%.

Q: Which results are given for `O=C(O)CC(=O)OC[C@H]1O[C@@H](Oc2cc(O)c3c(=O)cc(-c4ccc(O)c(O)c4)oc3c2)[C@H](O)[C@@H](O)[C@@H]1O` [Compound 15, Luteolin 7-O-6′-malonyl glucoside]?
A: IC50 (Xanthine oxidase (XOD)): 2020 µM; binding degree (BD) [1]: 99.0%

Q: `O=C(O)CC(=O)OC[C@H]1O[C@@H](Oc2cc(O)c3c(=O)cc(-c4ccc(O)cc4)oc3c2)[C@H](O[C@@H]2OC[C@](O)(CO)[C@H]2O)[C@@H](O)[C@@H]1O` [Compound 19, 6″-Malonylapiin] was tested. Which “binding degree (BD)” value [1] did it give?
A: The value was 63.2%.

Q: `COc1cc(-c2cc(=O)c3c(O)cc(OC4OC(COC(=O)CC(=O)O)C(O)C(O)C4OC4OCC(O)(CO)C4O)cc3o2)ccc1O` (stereo not drawn) [Compound 20, Chrysoeriol 7-O-6″-malonyl apiosylglucoside] was tested. Which “binding degree (BD)” value [1] did it give?
A: The value was 52.0%.

Q: Which results are given for `O=c1cc(-c2ccc(O)c(O)c2)oc2cc(O)cc(O)c12` [Compound 21, Luteolin]?
A: IC50 (Xanthine oxidase (XOD)): 69.2 µM; binding degree (BD) [1]: 97.8%

Q: How did the IC50 (Xanthine oxidase (XOD)) turn out when `O=c1cc(-c2ccc(O)cc2)oc2cc(O)cc(O)c12` [Compound 24, Apigenin] was run?
A: Its IC50 is 93 µM and 92.6 µM.

Q: What about the “binding degree (BD)” value [1] of the same compound?
A: Its value is 95.5%.

Q: `COc1cc(-c2cc(=O)c3c(O)cc(O)cc3o2)ccc1O` [Compound 25, Chrysoeriol] was tested. Which “binding degree (BD)” value [1] did it give?
A: The value was 96.7%.
